Data published in PubChem BioAssay (NCI).
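Interpolation was linear, between the two tested concentrations surrounding the appropriate level; five concentrations were tested over 48 hours in 96-well plates. GI50 is the concentration that inhibits growth by half. At the TGI there is no net growth.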

How the values were obtained:
Experiment in all cases: NCI anticancer screen, dose series, 48 h
MDA-MB-435 = test system: MDA-MB-435
DU-145 prostate = test system: DU-145 prostate
HOP-62 NSCLC = test system: HOP-62 NSCLC
CAKI-1 renal = test system: CAKI-1 renal
HCT-116 colon = test system: HCT-116 colon
K-562 leukemia = test system: K-562 leukemia
U251 CNS = test system: U251 CNS
HT29 colon = test system: HT29 colon
CCRF-CEM leukemia = test system: CCRF-CEM leukemia
UACC-62 melanoma = test system: UACC-62 melanoma

Compound | TGI (MDA-MB-435) [µM] | TGI (DU-145 prostate) [µM] | TGI (HOP-62 NSCLC) [µM] | TGI (CAKI-1 renal) [µM] | TGI (HCT-116 colon) [µM] | TGI (K-562 leukemia) [µM] | TGI (U251 CNS) [µM] | TGI (HT29 colon) [µM] | TGI (CCRF-CEM leukemia) [µM] | TGI (UACC-62 melanoma) [µM] | GI50 (MDA-MB-435) [µM] | GI50 (DU-145 prostate) [µM] | GI50 (HOP-62 NSCLC) [µM] | GI50 (CAKI-1 renal) [µM] | GI50 (HCT-116 colon) [µM] | GI50 (K-562 leukemia) [µM] | GI50 (U251 CNS) [µM] | GI50 (HT29 colon) [µM] | GI50 (CCRF-CEM leukemia) [µM] | GI50 (UACC-62 melanoma) [µM]
COc1cc(NCCC2CCCCN2)c2ncccc2c1 (stereo not given) | > 67.2 | > 100 | > 100 | > 100 | > 67.6 | > 66.3 | > 100 | > 100 | > 66.3 | > 59.9 |  |  |  |  |  |  |  |  |  | 
NC(=O)NCCCC(NC(=O)OCCCCCCn1ccc(=O)[nH]c1=O)C(=O)O (stereo not given) | > 100 | > 100 | > 100 | > 100 | > 100 | > 100 | > 100 | > 100 | > 100 | > 100 |  |  |  |  |  |  |  |  |  | 
NC(=O)Cc1nc2c(N)ncnc2n1C1OC(CO)C(O)C1O (stereo not given) | > 100 | > 100 | > 100 | > 100 | > 100 | > 100 | > 100 | > 100 | > 100 | > 100 |  |  |  |  |  |  |  |  |  | 
CC(=O)O[C@H]1CC[C@@]2(C)C(=CC[C@@H]3[C@@H]2CC[C@]2(C)c4c(C)nn(-c5ccccc5)c4C[C@@H]32)C1 | > 100 | 37.2 | 35.2 | 47.2 | > 100 | > 100 | > 100 | > 100 | 56.9 | 39.3 |  |  |  |  |  |  |  |  |  | 
CCOC(=O)C(Cc1ccc(OC(=O)c2ccc(OC)cc2)cc1)NC(=O)C(F)(F)F (stereo not given) | > 100 | > 100 | > 100 | > 100 | > 100 | > 100 | > 100 | > 100 | > 100 | > 100 |  |  |  |  |  |  |  |  |  | 
CCOC(=O)C1(C(=O)OCC)OC(C)=NC1(C(=O)OC)C(=O)OC | > 100 | > 100 | > 100 | > 100 | > 100 | > 100 | > 100 | > 100 | > 100 | > 100 |  |  |  |  |  |  |  |  |  | 
O=C(O)CCSCc1ccccc1 | > 100 | > 100 | > 100 | > 100 | > 100 | > 100 | > 100 | > 100 | > 100 | > 100 |  |  |  |  |  |  |  |  |  | 
CC(=O)OCC1OC(Nn2c(=O)[nH]c3ccccc3c2=O)C(OC(C)=O)C(OC(C)=O)C1OC(C)=O (stereo not given) | > 100 | > 100 | > 100 | > 100 | > 100 | > 100 | > 100 | > 100 | > 100 | > 100 |  |  |  |  |  |  |  |  |  | 
CC1=C(c2ccccc2)NC(=S)C(C)C(c2ccccc2)=N1 (stereo not given) | 69.3 | > 100 | > 100 | > 100 | > 100 | 28.6 | > 100 | > 100 | 47.1 | > 100 |  |  |  |  |  |  |  |  |  | 
NC(Cc1ccc(N(CCCl)CCCl)cc1)C(=O)NC(CCC(=O)O)C(=O)O (stereo not given) | > 100 | > 100 | > 100 | > 100 | > 100 | > 100 | > 100 | > 100 | > 100 | > 100 |  |  |  |  |  |  |  |  |  | 
O=C(Nc1ccc(-n2ccc3c(NC(=O)c4ccccc4)ncnc32)cc1)Nc1ccc(Cl)c(Cl)c1 | 11.5 | 6.31 | 7.44 | 21.2 | 5.06 | 6.75 | 2.29 | 2.9 | 2.83 | 13.1 | 2.44 | 1.9 | 1.85 | 8.79 | 1.66 | 1.73 | 0.942 | 0.965 | 0.987 | 6.34
S=C1CCSc2c(ccc3ccccc23)N1 | > 100 | > 100 | > 100 | > 100 | > 100 | > 100 | > 100 | > 100 | > 100 | > 100 |  |  |  |  |  |  |  |  |  | 
O=C1C(=O)N(c2cccc(C(F)(F)F)c2)C(=S)N1c1ccccc1 | 82.4 | > 100 | > 100 | 79.4 | > 100 | > 100 | > 100 | > 100 | > 100 | 31.3 |  |  |  |  |  |  |  |  |  | 
C/C=C(\C)C(O)C(C)C(O)C/C=C(C)/C=C(\C)C/C(C)=C/C/C=C(\C)C(O)C(C)c1ccc(CCC)c(=O)o1 (stereo not given) | 22.7 | 91.7 | 30.4 | 31.8 | 19.7 | > 100 | 24.1 | 3.32 | > 100 | 26.1 |  |  |  |  |  |  |  |  |  | 
C=C(CCC/C(C)=C/C=C/[C@@H](C)CCCc1ccoc1)C[C@@H]1OC(=O)[C@H](C)[C@@H]1O | 16.3 | 23.5 | 18.3 | 20.1 | > 50 | > 50 | 25.4 | > 50 | 24.6 | 12.3 |  |  |  |  |  |  |  |  |  | 
COC(=O)c1cc(C(=CCC[C@H]2CC[C@@]3(C)C(CCC4C3CC[C@@]3(C)C4CC[C@@H]3C(C)CCCC(C)C)C2)c2cc(Cl)c(O)c(C(=O)OC)c2)cc(Cl)c1O (stereo not given in full) | > 10 | > 10 | > 10 | > 10 | > 10 | > 10 | > 10 | > 10 | > 10 | > 10 |  |  |  |  |  |  |  |  |  | 
O=c1ccn(COC(COCc2ccccc2)COCc2ccccc2)c(=O)[nH]1 | > 100 | > 100 | > 100 | > 100 | > 100 | > 100 | > 100 | > 100 | > 100 | > 100 |  |  |  |  |  |  |  |  |  | 

Compound | TGI (MDA-MB-435) [µM] | TGI (DU-145 prostate) [µM] | TGI (HOP-62 NSCLC) [µM] | TGI (CAKI-1 renal) [µM] | TGI (HCT-116 colon) [µM] | TGI (K-562 leukemia) [µM] | TGI (U251 CNS) [µM] | TGI (HT29 colon) [µM] | TGI (CCRF-CEM leukemia) [µM] | TGI (UACC-62 melanoma) [µM] | GI50 (MDA-MB-435) [µM] | GI50 (DU-145 prostate) [µM] | GI50 (HOP-62 NSCLC) [µM] | GI50 (CAKI-1 renal) [µM] | GI50 (HCT-116 colon) [µM] | GI50 (K-562 leukemia) [µM] | GI50 (U251 CNS) [µM] | GI50 (HT29 colon) [µM] | GI50 (CCRF-CEM leukemia) [µM] | GI50 (UACC-62 melanoma) [µM]
CN(C)C(c1ccccc1)C1COC2Cc3ccccc3C1O2 (stereo not given) | > 100 | > 100 | > 100 | > 100 | > 100 | > 100 | > 100 | > 100 | > 100 | > 100 |  |  |  |  |  |  |  |  |  | 
CS(=O)(=O)c1ccc(N=C/C=C/Nc2ccc(S(C)(=O)=O)cc2)cc1 | > 100 | > 100 | > 100 | > 100 | > 100 | > 100 | > 100 | > 100 | > 100 | > 100 |  |  |  |  |  |  |  |  |  | 
COC(=O)C(Cc1c[nH]c2ccccc12)NC(=O)c1ccc(-c2ccc(Cl)cc2Cl)o1 (stereo not given) | > 100 | > 100 | > 100 | > 100 | > 100 | > 100 | > 100 | > 100 | > 100 | > 100 |  |  |  |  |  |  |  |  |  | 
COC(=O)C1(C#N)C(C)(C)N=C(c2ccccc2)C12CCCCC2 (stereo not given) | > 100 | > 100 | > 100 | > 100 | > 100 | > 100 | > 100 | > 100 | > 100 | > 100 |  |  |  |  |  |  |  |  |  | 
C=CCN(C(=O)OC(C)(C)C)[C@H](C)C(=O)N[C@@H](C)C(=O)OC | > 100 | > 100 | > 100 | > 100 | > 100 | > 100 | > 100 | > 100 | > 100 | > 100 |  |  |  |  |  |  |  |  |  | 
CC(C)=CCC/C(C)=C/CC/C(C)=C/CC/C(C)=C/CC/C(C)=C/CC/C(C)=C/CC/C(C)=C/CC/C(C)=C/CC/C(C)=C/CO | > 100 | > 100 | > 100 | > 100 | > 100 | > 100 | > 100 | > 100 | > 100 | > 100 |  |  |  |  |  |  |  |  |  | 
CN(C)CCNC(=O)c1cccc(N(C)C(=O)c2ccccc2)c1[N+](=O)[O-] | > 100 | > 100 | > 100 | > 100 | > 100 | > 100 | > 100 | > 100 | > 100 | > 100 |  |  |  |  |  |  |  |  |  | 
CC1(C)Cc2nc3c(cc2C(=O)C1C=N/C(C#N)=C(\N)C#N)C(=O)C(C=N/C(C#N)=C(\N)C#N)C(C)(C)C3 (stereo not given) | 3.48 | 8.44 | 6.94 | 3.54 | 2.96 | > 100 | 3.14 | 10.9 | > 100 | 3.56 |  |  |  |  |  |  |  |  |  | 
Cn1c(=O)c2c(nc3n2CCCC(=O)N3CC(O)CCl)n(C)c1=O (stereo not given) | > 100 | > 100 | > 100 | > 100 | > 100 | > 100 | > 100 | > 100 | > 100 | > 100 |  |  |  |  |  |  |  |  |  | 
CC1SCc2nc3ccccc3n21 (stereo not given) | > 100 | > 100 | > 100 | > 100 | > 100 | > 100 | > 100 | > 100 | > 100 | > 100 |  |  |  |  |  |  |  |  |  | 
CCOC(=O)C1=CCOc2cc(N(C)C)ccc21 | > 100 | > 100 | > 100 | > 100 | > 100 | > 100 | > 100 | > 100 | 64 | > 100 |  |  |  |  |  |  |  |  |  | 
CC[C@@]1(C)CCC2c3ccc(O)cc3CC[C@H]2C1C (stereo not given in full) | 30.2 | 30.4 | 33 | 35.7 | 31.9 | 23.3 | 30.9 | 34.1 | 33.4 | 28.4 |  |  |  |  |  |  |  |  |  | 
COC1CN(C)C(=Nc2cccc3ccccc23)S1 (stereo not given) | > 10 | > 10 | > 10 | > 10 | > 10 | > 10 | > 10 | > 10 | > 10 | > 10 |  |  |  |  |  |  |  |  |  | 
O=C1C2=C(CC3=C(C2)CS(=O)(=O)C3)C(=O)C2=C1CC1=C(C2)CS(=O)(=O)C1 | 21.1 | > 87 | 37.3 | > 69.5 | 28.5 | > 39.1 | 31 | 41.4 | 34.3 | 37.1 |  |  |  |  |  |  |  |  |  | 
O=c1[nH]nc(-c2ccccc2)n1/N=C/c1cccs1 | 79.5 | > 100 | > 100 | > 100 | > 100 | > 100 | > 100 | > 100 | > 100 | > 100 |  |  |  |  |  |  |  |  |  | 
COc1ccccc1C1ON=C(c2ccc([N+](=O)[O-])cc2)N1C12CC3CC(CC(C3)C1)C2 (stereo not given) | > 100 | > 100 | 71.9 | > 100 | > 100 | > 100 | > 100 | > 100 | > 100 | > 100 |  |  |  |  |  |  |  |  |  | 
